molecular target: Ras-related C3 botulinum toxin substrate 1 (Mus musculus, UniProt P63001); experiment: wildtype Rac1 GTP binding inhibitors, dose response, biochemical, multiplex bead flow cytometry (AID 1340)

SMILES | EC50 [µM]
O=C(O)c1ccccc1Sc1ncnc2sc3c(c12)CCC3 | 1.22
COc1cc(CN=Nc2nnc3c(n2)[nH]c2ccccc23)ccc1O | 0.634
CN1C(=O)N(C)c2ccc(C=O)c3cccc1c23 [1,3-dimethyl-2-oxidanylidene-perimidine-6-carbaldehyde] | 20.8
CCCc1nc2c(=O)n(C)c(=O)nc-2n(C)n1 [1,6-dimethyl-3-propyl-pyrimido[5,4-e][1,2,4]triazine-5,7-dione] | 0.623
O=C(O)c1cn(CCOc2ccccc2)c2ccccc12 [1-(2-phenoxyethyl)-3-indolecarboxylic acid] | 5.44
O=C(C#Cc1ccccc1)c1cccc([N+](=O)[O-])c1 [1-(3-nitrophenyl)-3-phenyl-2-propyn-1-one] | 19.2
Cc1ccc(C)c(OCCn2cc(C(=O)O)c3ccccc32)c1 [1-[2-(2,5-dimethylphenoxy)ethyl]-3-indolecarboxylic acid] | 0.802
OC(CNCCc1ccc(Cl)cc1)COc1ccc2ccccc2c1 (configuration not stated) [1-[2-(4-chlorophenyl)ethylamino]-3-(2-naphthalenyloxy)-2-propanol] | 7.19
CC(=O)c1c(C)[nH]c(C(=O)N2CCc3ccccc3C2)c1C [1-[5-(3,4-dihydro-1H-isoquinolin-2-ylcarbonyl)-2,4-dimethyl-1H-pyrrol-3-yl]ethanone] | 5.13
O=C(NNC(=S)NCc1ccc(Cl)cc1)c1ccc(Br)o1 [1-[(5-bromanylfuran-2-yl)carbonylamino]-3-[(4-chlorophenyl)methyl]thiourea] | 0.0857
Cc1cc(C)c(C)c(C(=O)c2ccccc2C(=O)O)c1C [2-(2,3,5,6-tetramethylbenzoyl)benzoic acid] | 2.24
Cc1cc(C(=O)Oc2ccccc2C(=O)O)c(C)o1 [2-(2,5-dimethyl-3-furoyl)oxybenzoic acid] | 0.102
O=C(O)c1ccccc1OCc1ccccc1Br [2-(2-bromobenzyl)oxybenzoic acid] | 0.151
CC1(C)Cc2c(sc(NC(=S)NC(=O)c3ccccc3)c2C(=O)O)CO1 [2-(benzoylcarbamothioylamino)-5,5-dimethyl-4,7-dihydrothieno[2,3-c]pyran-3-carboxylic acid] | 0.0806
O=C(O)c1ccccc1NCCc1ccc(Cl)cc1 [2-[2-(4-chlorophenyl)ethylamino]benzoic acid] | 1.52
CC(C)C(NCc1c(Cl)cccc1Cl)C(=O)O (configuration not stated) [2-[(2,6-dichlorobenzyl)amino]-3-methyl-butyric acid] | 5.8
O=C(O)c1ccccc1NCc1ccccc1Cl [2-[(2-chlorobenzyl)amino]benzoic acid] | 0.899
Cc1cc(NC(=O)CSc2nc(O)c(C#N)c(-c3ccccc3)n2)no1 [2-[(5-cyano-4-oxidanylidene-6-phenyl-1H-pyrimidin-2-yl)sulfanyl]-N-(5-methyl-1,2-oxazol-3-yl)ethanamide] | 9.54
N#Cc1c(-c2ccccc2)nc(SCC(=O)Nc2ccccc2)[nH]c1=O [2-[(5-cyano-4-oxo-6-phenyl-1H-pyrimidin-2-yl)thio]-N-phenylacetamide] | 3.54
COc1ccc(-c2nnc(SCC(=O)c3cccs3)o2)cc1 [2-[[5-(4-methoxyphenyl)-1,3,4-oxadiazol-2-yl]sulfanyl]-1-thiophen-2-yl-ethanone] | 6.39
COc1cc(C=NNC(=O)c2sc(N)nc2C)cc(OC)c1OC [2-amino-4-methyl-N-[(3,4,5-trimethoxyphenyl)methylideneamino]-5-thiazolecarboxamide] | 1.67
Cc1cc(C(=O)Cn2nc(C(=O)O)c3ccccc3c2=O)c(C)n1-c1ccc(OC(F)F)cc1 [3-[2-[1-[4-(difluoromethoxy)phenyl]-2,5-dimethyl-3-pyrrolyl]-2-oxoethyl]-4-oxo-1-phthalazinecarboxylic acid] | 5.9
O=C(O)CCN1C(=O)/C(=C/c2ccc(-c3nc4ccccc4s3)o2)SC1=S [3-[(5Z)-5-[[5-(1,3-benzothiazol-2-yl)furan-2-yl]methylidene]-4-oxo-2-sulfanylidene-1,3-thiazolidin-3-yl]propanoic acid] | 0.976
CCn1nc(C(=O)OCC(=O)c2cc(C)n(Cc3cccs3)c2C)c2ccccc2c1=O [3-ethyl-4-keto-phthalazine-1-carboxylic acid [2-[2,5-dimethyl-1-(2-thenyl)pyrrol-3-yl]-2-keto-ethyl] ester] | 0.892

SMILES | EC50 [µM]
CCOC(=O)c1nc(Nc2ccc(C(C)=O)cc2)c2ccccc2n1 [4-(4-acetylanilino)-2-quinazolinecarboxylic acid ethyl ester] | 3.4
COc1ccc(C(=O)CC=Nc2ccc(S(=O)(=O)Nc3nc(C)cc(C)n3)cc2)cc1OC [4-[3-(3,4-Dimethoxy-phenyl)-3-oxo-propenylamino]-N-(4,6-dimethyl-pyrimidin-2-yl)-benzenesulfonamide] | 3.12
CC(C)Oc1ccc(C=NNC(=O)c2ccc(N(Cc3ccccc3)S(C)(=O)=O)cc2)cc1 [4-[benzyl(mesyl)amino]-N-[(4-isopropoxybenzylidene)amino]benzamide] | 5.17
COc1ccccc1NCc1sc(C(=O)O)cc1C [4-methyl-5-(o-anisidinomethyl)-2-thenoic acid] | 16
O=C(O)c1ccc(COc2ccccc2Cl)o1 [5-[(2-chloranylphenoxy)methyl]furan-2-carboxylic acid] | 26.3
COc1ccc(Cl)cc1NCc1sc(C(=O)O)cc1C [5-[(5-chloro-2-methoxy-anilino)methyl]-4-methyl-2-thenoic acid] | 1.82
Cc1cccc(-n2nc(CC#N)c(C#N)c2N)c1 [5-amino-3-(cyanomethyl)-1-(3-methylphenyl)-4-pyrazolecarbonitrile] | 28.4
Cc1sc2nc3ccc(NCc4ccco4)nn3c(=O)c2c1C [7-(2-furanylmethylamino)-2,3-dimethyl-4-thieno[1,2]pyrimido[4,5-b]pyridazinone] | 9.21
CCN(CC)c1ccc2cc(-c3nc(-c4ccc(OC)cc4)cs3)c(=O)oc2c1 [7-(diethylamino)-3-[4-(4-methoxyphenyl)-1,3-thiazol-2-yl]chromen-2-one] | 0.372
O=C1/C(=C\c2cccnc2)Sc2ccccc21 [(2E)-2-(3-pyridinylmethylidene)-1-benzothiophen-3-one] | 93.1
Cc1cc(C)cc(N=Cc2[nH]c3ccc(Br)c(Cl)c3c2O)c1 [(2Z)-5-bromo-4-chloro-2-[(3,5-dimethylanilino)methylidene]-1H-indol-3-one] | 3.03
CCOc1ccc(/C=C2\SC(N3CCc4ccccc4C3)=NC2=O)cc1 [(5Z)-2-(3,4-dihydro-1H-isoquinolin-2-yl)-5-(4-ethoxybenzylidene)-2-thiazolin-4-one] | 4.02
O=C(O)/C=C/c1cn(Cc2ccccc2)nc1-c1cccs1 [(E)-3-(1-benzyl-3-thiophen-2-ylpyrazol-4-yl)prop-2-enoic acid] | 2.28
O=C(O)/C=C/c1cn(Cc2ccccc2)nc1-c1ccc(Cl)cc1 [(E)-3-[1-benzyl-3-(4-chlorophenyl)pyrazol-4-yl]acrylic acid] | 0.164
O=C(Nc1nc(-c2ccc(S(=O)(=O)N3CCCC3)cc2)cs1)c1ccco1 [MLS000049286] | 1.76
O=C(COc1ncnc2cc([N+](=O)[O-])ccc12)NCCc1ccc(Cl)cc1 [MLS000335629] | 5.41
O=C(NC1CCCCC1)c1cc([N+](=O)[O-])n[nH]1 [MLS000559279] | 55.3
Cc1ccccc1C(=O)Nc1ccc2c(C#N)c3nc4ccccc4nc3n2c1 [MLS000591720] | 0.291
N=C(N)NS(=O)(=O)c1ccc(NC(=S)NC(=O)c2ccc3c(c2)OCO3)cc1 [MLS000621545] | 2.8
COCCn1c(=S)[nH]c2cc(C(=O)N3CCc4ccccc4C3)ccc2c1=O [SMR000310652] | 0.605
COc1cc(SC#N)ccc1N=Cc1c(C)[nH]n(-c2ccc(C)c(C)c2)c1=O [[4-[[(Z)-[1-(3,4-dimethylphenyl)-3-methyl-5-oxidanylidene-pyrazol-4-ylidene]methyl]amino]-3-methoxy-phenyl] thiocyanate] | 0.966
NC(=S)NNC1=c2cc(F)ccc2=NC1=O [[(5-fluoro-2-oxoindol-3-yl)amino]thiourea] | 3.46
CCOC(=O)CN(C(=O)CSc1nnc2c(n1)[nH]c1ccc(OC)cc12)c1ccc(F)cc1 [ethyl 2-[(4-fluorophenyl)-[2-[(8-methoxy-5H-[1,2,4]triazino[5,6-b]indol-3-yl)sulfanyl]ethanoyl]amino]ethanoate] | 0.923

— BindingDB's records for doi:10.7270/Q2377749 (Nmmlsc, 2010)
